Laboratory results taken from EP3364964B1, “COMPOSITION BASED ON DIHYDROMYRICETIN AND A ZINC SALT FOR THE TREATMENT OF ACNE AND OILY SKIN” (Thorel, Jean-Noël, priority 2015, dated 2017).
“And” between values parts separate entries of the source, which are not always exact repeats. Equal values may be shown once.

Columns and labels:
[1] = test system: collagénase issue de Clostridium histolyticum; test: Anti-collagenase activity, MMP-1 kit, in tubo fluorescence test; type: biochemical
Text: L'activité anti-collagénase est mesurée grâce au kit MMP-1 (Molecular Probes; Réf E12055). Le principe est basé sur la capacité d'une enzyme de la famille des MMP (« Marix Metallo-Proteinase ») zinc-dépendantes, en l'occurrence la collagénase issue de Clostridium histolyticum, à hydrolyser son substrat (collagène-I) pour donner des composés fluorescents mesurables.
En présence d'un inhibiteur, l'action de l'enzyme est altérée empêchant l'hydrolyse de son substrat. La 1,10 phénanthroline est utilisée comme le témoin positif d'inhibition de l'enzyme. La fluorescence émise à 535 nm est mesurée après excitation à 485 nm.
La 1,10-phenanthroline monohydrate (10mM), un inhibiteur connu des MMP fourni dans le kit, est utilisée comme contrôle positif.
Les contrôles négatifs suivants ont été réalisés : • Témoin H2O : ce témoin a été utilisé pour solubiliser la 1-10-phenantroline monohydrate; il représente arbitrairement 100% d'activité de l'enzyme par rapport aux résultats obtenus avec ce contrôle. • Témoin solvant (DMSO 1%) : quantité de solvant inclus dans l'ensemble des actifs et associations à tester; il représente arbitrairement 100% d'activité de l'enzyme par rapport aux résultats obtenus avec les actifs et associations testés.
Le gluconate de zinc a été testé à la concentration de 0,1% (en poids).
La DHM a été testée aux concentrations suivantes : 0,002% et 0,05% (en poids). L'association gluconate de zinc 0,1% + DHM 0,002% a également été testée.
Les analyses quantitatives sont exprimées sous forme de moyenne ± l'écart type. La significativité statistique est déterminée par un test de Student. Les différences sont considérées comme statistiquement significatives entre l'actif testé et son témoin solvant à partir de p<0.05. (NS : […]).

[2] = test system: lignée de sébocytes humains SEB0662; test: MTT cell viability / cytotoxicity test in sebocytes; type: cell-based
Method: (§1) Dans cette étude, on utilise la lignée de sébocytes humains SEB0662.
(§2) Les cellules sont cultivées dans le milieu de culture classique des sébocytes, à 37°C et en présence de 5% de CO2. Les cellules sont utilisées au 7^ème passage.
La sélection des doses d'actifs est réalisée grâce à un test de viabilité cellulaire au MTT. On retient les doses qui permettent de maintenir une viabilité supérieure à 90%.
L'erreur standard de la moyenne (esm) représente l'écart de ln moyenne de l'échantillon par rapport à la moyenne de la population. L'esm est calculée en divisant l'écart-type (Sd) par la racine carrée de la taille de l'échantillon (sqrt(n)). Erreur standard de la moyenne(esm) = écart-type(Sd)/sqrt(n) [formula] Pourcentage de viabilité: viabilité(%) = (DOcomposé/DOtémoin) × 100 [formula] Pourcentage de stimulation: Stimulation(%) = [(Valeur/moyennedutémoin)×100]−100 [formula] Pourcentage de d'inhibition: Inhibition(%) = 100−[(Valeur/moyennedutémoin)×100] [formula]

[3] = Protection of squalene against oxidation induced by hydrogen peroxide (GC/MS of non-oxidised squalene); conditions: H2O2 6%, 1 h; for Squalène Moyenne: mean; for Squalène (µg/ml): single trials (Essai)
Text: L'objectif de ce test est d'évaluer l'inhibition par la DHM de l'oxydation du squalène, induite par le peroxyde d'hydrogène (H2O2). Le Trolox (6-Hydroxy-2,5,7,8-tétraméthylchroman-2-carboxylic acid), un équivalent hydrosoluble de la vitamine E, est un antioxydant connu et est utilisé dans ces tests en tant que témoin positif.
Le squalène (Sigma Aldrich) est dans un premier temps solubilisé dans une chambre réactionnelle.
L'oxydation du squalène est induite par l'ajout d'une solution de peroxyde d'hydrogène (H2O2 à une concentration finale de 6%).
Les actifs devant être évalués sont ajoutés au mélange réactionnel. Ainsi, le Trolox à 0,8% en poids est utilisé comme témoin positif de la protection contre l'oxydation du squalène.
Un contrôle positif, correspondant au squalène incubé en présence d'H2O2, et un contrôle négatif, correspondant au squalène non exposé à l'H2O2, sont également réalisés.
Le mélange obtenu est mis sous agitation pendant une heure, à température ambiante et à l'abri de la lumière.
Le squalène est ensuite extrait du milieu réactionnel à l'aide d'une extraction liquide/liquide. Après évaporation de la solution organique, le résidu est solubilisé dans une solution de chloroforme et le squalène est analysé par une méthode de chromatographie GC/MS.
La mesure de la concentration en squalène permet d'estimer la quantité de squalène ayant été oxydée au cours de la réaction. En effet et selon la technique de mesure utilisée, seule la forme non oxydée est détectée.

sébocytes SEB0662 = test: IGF-1 induced lipid synthesis in sebocytes (Bodipy lipid droplet labelling, 14 days); type: cell-based, humains; conditions: 0,001%, IGF-1 20 ng/ml
Method: La présente étude vise à étudier l'effet de la DHM et/ou du gluconate de zinc (Zn) sur l'inhibition de la synthèse des lipides, induite par l'ajout d'IGF-1, dans les sébocytes. Cet effet est suivi par marquage, à l'aide d'une sonde lipidique fluorescente couplée au Bodipy®, des sébocytes SEB0662 cultivés en monocouche pendant 14 jours en milieu de différenciation (supplémenté en IGF-1 à 20 ng/ml).
as §1, §2
Pour l'évaluation des actifs, un milieu dit de différenciation (milieu de culture classique supplémenté en dihydrotestostérone, albumine bovine sérique, acide linoléïque, glucose, sérum de veau fœtal, hydrocortisone et agonistes des PPAR (« Peroxysome Proliferator Activated Receptor »)), complémenté en IGF-1 à 20 ng/ml, est utilisé. L'ajout d'IGF-1 stimule la production de lipides par les sébocytes. […]
Les marquages sont quantifiés par mesure de l'intensité de fluorescence de la sonde rapportée au nombre de noyaux identifiés par le Hoechst (intégration des données numériques par le logiciel Developer Toolbox 1 .5, GE Healthcare). […]

[4] = test system: Propionibacterium acnes ATCC 69.19; test: Growth inhibition of P. acnes, micromethod of Lens-Lisbonne et al. (MIC); type: cell-based; conditions: first concentration with growth <= 20 %, 36° C, 3 to 5 days, anaerobic
Text: L'objet de cette étude est d'évaluer l'activité inhibitrice de composés vis-à-vis de la souche Propionibacterium acnes selon les principes de la méthode décrite par Lens-Lisbonne et al. (1987).
La méthode de Lens-Lisbonne et al. permet de tester en milieu liquide le pouvoir antibactérien de substances faiblement solubles et/ou très volatiles, et permet d'éviter les méthodes par diffusion ou en phase vapeur. Brièvement, elle consiste à mettre en présence des volumes égaux de produit à tester et de milieu inoculé, à différentes concentrations. […] L'activité inhibitrice est évaluée à partir des mesures d'absorbance du mélange, comparées aux conditions contrôle. […]
Après incubation de la microplaque pendant une durée définie, la densité optique à 620 nm est mesurée. Les résultats sont exprimés en pourcentage de croissance calculé par rapport à un témoin de croissance et un témoin d'absorbance selon l'équation suivante: Pourcentage de croissance = (DOmesuréeduproduitàlaconcentrationC−DOmesuréedutémoind'absorbanceproduitàlaconcentrationC)/DO mesurée témoin de croissance [formula] […]
Le test est effectué sur microplaque 96 puits. En synthèse, 30 puits sont utilisés pour les témoins d'absorbance; 30 puits sont utilisés pour les essais. […]

For `O.c1cnc2c(c1)ccc1cccnc12` [1-10-phénanthroline monohydrate, 1,10-phenanthroline monohydrate, reference compound], the “inhibition de l'activité collagénase” value ([1]; 10mM, versus H2O control) was 79,6%.

In the case of `O=C1c2c(O)cc(O)cc2O[C@H](c2cc(O)c(O)c(O)c2)[C@H]1O` [DHM, (2R,3R)-3,5,7-trihydroxy-2-(3,4,5-trihydroxyphenyl)-2,3-dihydrochromen-4-one], the “inhibition de l'activité collagénase” value ([1]; 0,05% en poids, versus DMSO 1% control) is reported as 30,1%, the “inhibition de l'activité collagénase” value ([1]; 0,002% en poids, versus DMSO 1% control) is reported as 3,5% and the effet cytotoxique ([2]; tested up to 0,003%) is reported as “ne montre pas d'effet cytotoxique”. For the same molecule, the “Indice de protection (%)” value ([3]; 0,01 % en poids) was 35,19%, the “Squalène Moyenne” value ([3]; 0,01 % en poids) was 26,10 µg/ml and the “Squalène (µg/ml)” value ([3]; 0,01 % en poids) was 27,01 µg/ml and 24,86 µg/ml and 26,42 µg/ml. The “Indice de protection (%)” value ([3]; 0,05 % en poids) was 45,28%, the “Squalène Moyenne” value ([3]; 0,05 % en poids) was 33,58 µg/ml and the “Squalène (µg/ml)” value ([3]; 0,05 % en poids) was 34,44 µg/ml and 32,88 µg/ml and 33,41 µg/ml. For the same molecule, the “Indice de protection (%)” value ([3]; 0,005 % en poids) was 28,64%, the “Squalène Moyenne” value ([3]; 0,005 % en poids) was 21,24 µg/ml and the “Squalène (µg/ml)” value ([3]; 0,005 % en poids) was 19,84 µg/ml and 21,37 µg/ml and 22,51 µg/ml.

With `Cc1c(C)c2c(c(C)c1O)CCC(C)(C(=O)O)O2` (stereo not drawn) [Trolox, 6-Hydroxy-2,5,7,8-tétraméthylchroman-2-carboxylic acid, reference compound] the “Indice de protection (%)” value ([3]; 0,8 % en poids) was 42,94%, the “Squalène Moyenne” value ([3]; 0,8 % en poids) was 31,85 µg/ml and the “Squalène (µg/ml)” value ([3]; 0,8 % en poids) was 31,41 µg/ml and 31,88 µg/ml and 32,25 µg/ml and 34,60 µg/ml and 32,49 µg/ml.

With gluconate de zinc [reference compound] the “inhibition de la synthèse des lipides induite par l'IGF-1” value (sébocytes SEB0662) was roughly 15%, the “inhibition de l'activité collagénase” value ([1]; 0,1% en poids, versus DMSO 1% control) was 80,2% and the cytotoxicité ([2]; 0,001%) was “ne présente pas de cytotoxicité”. For the same molecule, the “CMI microméthode (%-m/v)” value ([4]; Test 1) was 0,05 %-m/v and the “CMI microméthode (%-m/v)” value ([4]; Test 2) was 0,05 %-m/v.
